The values below come from patent US6794396B2, “Substituted pyridines useful for inhibiting cholesteryl ester transfer protein activity” (Pharmacia Corporation, priority 1998, dated 2004).

One series addresses T1, CETP (Homo sapiens, UniProt P11597).
T1 construct: made in house; host or cells: CHO cells (serum-free conditioned medium)
T1 sequence (P11597 18-493): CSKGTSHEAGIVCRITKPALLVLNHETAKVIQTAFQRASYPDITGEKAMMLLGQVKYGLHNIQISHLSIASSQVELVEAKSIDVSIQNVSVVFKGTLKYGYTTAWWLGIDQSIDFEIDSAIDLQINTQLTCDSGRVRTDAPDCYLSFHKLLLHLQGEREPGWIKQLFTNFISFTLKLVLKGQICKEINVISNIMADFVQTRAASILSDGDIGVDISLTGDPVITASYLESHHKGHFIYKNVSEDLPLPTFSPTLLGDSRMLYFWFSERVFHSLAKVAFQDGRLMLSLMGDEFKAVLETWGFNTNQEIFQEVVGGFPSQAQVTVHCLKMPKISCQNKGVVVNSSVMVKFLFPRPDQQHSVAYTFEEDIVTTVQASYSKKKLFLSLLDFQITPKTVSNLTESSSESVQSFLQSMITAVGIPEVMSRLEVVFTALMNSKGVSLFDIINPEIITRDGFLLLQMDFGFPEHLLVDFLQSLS
The experiment in a line: CETP activity in vitro: transfer of [3H]CE from HDL donor to LDL acceptor particles. It counts as biochemical. The method, boiled down:
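CETP from conditioned medium of CETP-transfected CHO cells incubated with [3H]CE-labelled HDL donor and LDL acceptor, pH 7.4 Tris buffer with NaCl, EDTA and 1% BSA, 2 h at 37 °C. LDL precipitated with dextran sulfate/MgCl2, filtered, and transferred radioactivity counted; IC50 reported.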

Series [1] deals with T2, CETP in human plasma or serum pool (Homo sapiens, UniProt P11597).
T2 construct: from tissue; host or cells: pooled human EDTA plasma or serum from healthy volunteers
T2 sequence (P11597 18-493): T1 sequence (P11597 18-493)
The experiment in a line: Whole serum CETP activity assay (tritiated cholesterol ester). It counts as biochemical. Particulars: 4 hours at 37° C. How it is done:
Blood was obtained from healthy volunteers recruited from the personnel of Monsanto Company, Saint Louis, Mo. Blood was either collected in tubes containing EDTA (EDTA plasma pool) or in tubes without EDTA (spun to form the serum pool). The EDTA human plasma pool or human serum pool, previously stored at −20° C., was thawed at room temperature, and centrifuged for 5 minutes to remove any particulate matter. Tritiated HDL, radiolabeled in the cholesteryl ester moiety ([^3H]CE-HDL) as described by Morton and Zilversmit (J. Biol. Chem., 256, 11992-95 (1981) which is incorporated by reference herein), was added to the plasma or serum to a final concentration of (25 μg/ml cholesterol).
Inhibitor compounds were added to the plasma or serum as follows: Equal volumes of the plasma or serum containing the [^3H]CE-HDL (396 μl) were pipetted into micro tubes (Titertube®, Bio-Rad Laboratories, Hercules, Calif.). Compounds, usually dissolved as 20-50 mM stock solutions in DMSO, were serially diluted in DMSO (or an alternative solvent in some cases, such as dimethylformamide or ethanol). Four μl of each of the serial dilutions of inhibitor compounds or DMSO alone were then added to each of the plasma or serum tubes. The tubes were immediately mixed. Triplicate aliquots (100 μl) from each plasma or serum tube were then transferred to wells of 96-well round-bottomed polystyrene microtiter plates (Corning, Corning, N.Y.). Plates were sealed with plastic film and incubated at 37° C. for 4 hours.
Test wells contained plasma or serum with dilutions of inhibitor compounds. Control wells contained plasma or serum with DMSO alone. Blank wells contained plasma or serum with DMSO alone that were left in the micro tubes at 4° C. for the 4 hour incubation and were added to the microtiter wells at the end of the incubation period. VLDL and LDL were precipitated by the addition of 10 μl of precipitating reagent (1% (w/v) Dextran Sulfate (Dextralip50)/0.5M magnesium chloride, pH 7.4) to all wells. The wells were mixed on a plate mixer and then incubated at ambient temperature for 10 min. The plates were then centrifuged at 1000×g for 30 mins at 10° C. The supernatants (50 μl) from each well were then transferred to Picoplate™ 96 plate wells (Packard, Meriden, Conn.) containing […] Microscint™-40 (Packard, Meriden, Conn.). The plates were heat-sealed (TopSeal™-P, Packard, Meriden, Conn.) according to the manufacturers directions and mixed for 30 min.
Radioactivity was measured on a microplate scintillation counter (TopCount, Packard, Meriden, Conn.). […] The maximum percent transfer (in the control wells) was determined using the following equation: [formula]
The percent of control transfer determined in the wells containing inhibitor compounds was determined as follows: [formula]
IC50 values were then calculated from plots of % control versus concentration of inhibitor compound.

Setting [2] is: 50% inhibition of [3H]CE transfer from HDL to LDL, 2 hours at 37° C., read-out: IC50(μm).
[3] abbreviates: IC50(μm), 50% inhibition of [3H]CE transfer from HDL to LDL, 2 hours at 37° C.

Molecules are shown by their SMILES. Read-outs that look alike come from different tables or passages of the source.

`COC(=O)c1c(C(F)F)nc(C(F)(F)F)c(C(=O)Sc2ccc(C(C)(C)C)cc2)c1CC(C)C` [Compound 156, Methyl 5-{[(4-t-Butylphenyl)thio]carbonyl}-2-(difluoromethyl)-4-(2-methylpropyl)-6-(trifluoromethyl)-3-pyridinecarboxylate]: the melting point fell in the range of 60.5 to 62.5 °C. Further, the half-inhibitory concentration (IC50) on CETP (setting [2]) turned out to be 100 µM.
Regarding `COC(=O)c1c(C(F)F)nc(C(F)(F)F)c(C(=O)Sc2ccc(C)cc2C)c1CC(C)C` [Compound 158, Methyl 2-(Difluoromethyl)-5-{[(2,4-dimethyl-phenyl)thio]carbonyl}-4-(2-methylpropyl)-6-(trifluoromethyl)-3-pyridinecarboxylate], the melting point is 96 to 99 °C. The compound also came in with an IC50 at CETP (setting [3]) of 100 µM.
For the compound `COC(=O)c1c(C(F)F)nc(C(F)(F)F)c(C(=O)Sc2ccc(SC)cc2)c1CC(C)C` [Compound 159, Methyl 2-(Difluoromethyl)-4-(2-methylpropyl)-5-{[(4-methylthiophenyl)thio]carbonyl}-6-(trifluoromethyl)-3-pyridinecarboxylate], the melting point lay within 112 to 114 °C. Also, the half-inhibitory concentration (IC50) on CETP (setting [3]) is 80 µM.
Compound `COC(=O)c1c(C(F)F)nc(C(F)(F)F)c(C(=O)Sc2ccc(C(C)C)cc2Cc2ccc(F)cc2)c1CC(C)C` [Compound 160, Methyl 2-(Difluoromethyl)-4-(2-methylpropyl)-5-{[(2-(4-fluorobenzyl)-4-isopropylphenyl)thio]carbonyl}-6-(trifluoromethyl)-3-pyridinecarboxylate] had a melting point of 86.5 to 91 °C. For the same compound, the IC50 on CETP (setting [2]) came to 60 µM.
Compound `COC(=O)c1c(C(F)F)nc(C(F)(F)F)c(C(=O)Sc2ccc(F)cc2Cc2ccc(F)cc2)c1CC(C)C` [Compound 161, Methyl 2-(Difluoromethyl)-4-(2-methylpropyl)-5-{[(2-(4-fluorobenzyl)-4-fluorophenyl)thio]carbonyl}-6-(trifluoromethyl)-3-pyridinecarboxylate] gave a melting point of 105 to 107 °C. Also, the half-inhibitory concentration (IC50) at CETP (setting [2]) was 70 µM.
`COC(=O)c1c(C(F)F)nc(C(F)(F)F)c(C(=O)Sc2ccc(Cl)cc2)c1CC(C)C` [Compound 162, Methyl 5-{[(4-chlorophenyl)thio]carbonyl}-2-(difluoromethyl)-4-(2-methylpropyl)-6-(trifluoromethyl)-3-pyridinecarboxylate] gave a melting point of 94 to 96.5 °C. Further, half-maximal inhibition against CETP (setting [3]) (IC50) was put at 50 µM.
As to `COC(=O)c1c(C(F)F)nc(C(F)(F)F)c(C(=O)Sc2cc(Cl)ccc2Cl)c1CC(C)C` [Compound 163, Methyl 5-{[(2,5-Dichlorophenyl)thio]carbonyl}-2-(difluoromethyl)-4-(2-methylpropyl)-6-(trifluoromethyl)-3-pyridinecarboxylate], the melting point was 112.5 to 113.5 °C. Further, at CETP (setting [3]), the IC50 was found to be 65 µM.
The matching figures for `COC(=O)c1c(C(F)F)nc(C(F)(F)F)c(C(=O)Sc2c(Cl)cccc2Cl)c1CC(C)C` [Compound 164, Methyl 5-{[(2,6-Dichlorophenyl)thio]carbonyl}-2-(difluoromethyl)-4-(2-methylpropyl)-6-(trifluoromethyl)-3-pyridinecarboxylate]: 109.5 to 112.5 °C and 50 µM.
With `COC(=O)c1c(C(F)F)nc(C(F)(F)F)c(C(=O)Oc2ccccc2[N+](=O)[O-])c1CC(C)C` [Compound 166, 3-Methyl 5-(2-Nitrophenyl) 2-(Difluoromethyl)-4-(2-methylpropyl)-6-(trifluoromethyl)-3,5-pyridicarboxylate], the melting point was 102.5 to 105.5 °C. Further, the IC50 at CETP (setting [2]) is over 100 µM.
On the same counts, the results for `COC(=O)c1c(C(F)F)nc(C(F)(F)F)c(C(=O)Oc2cc(C(C)(C)C)cc(C(C)(C)C)c2)c1CC(C)C` [Compound 167, 3-Methyl 5-(3,5-Di-t-butylphenyl) 2-(Difluoromethyl)-4-(2-methylpropyl)-6-(trifluoromethyl)-3,5-pyridicarboxylate] are 100 to 103.5 °C and 60 µM.
On to `COC(=O)c1c(C(F)F)nc(C(F)(F)F)c(C(=O)Oc2cc(OC)c(OC)c(OC)c2Cc2ccc(F)cc2)c1CC(C)C` [Compound 171, 3-Methyl 5-[2-(4-Fluorobenzyl)-3,4,5-(trimethoxy)phenyl]2-(Difluoromethyl)-4-(2-methylpropyl)-6-(trifluoromethyl)-3,5-pyridicarboxylate], for which the melting point lay in the range of 131.5 to 133.5 °C. The half-maximal inhibitory concentration (IC50) at CETP (setting [2]) was 70 µM.
The matching figures for `COC(=O)c1c(C(F)F)nc(C(F)(F)F)c(C(=O)Oc2ccccc2OC)c1CC(C)C` [Compound 172, 3-Methyl 5-(2-Methoxyphenyl) 2-(Difluoromethyl)-4-(2-methylpropyl)-6-(trifluoromethyl)-3,5-pyridicarboxylate]: 73 to 74.5 °C and over 100 µM.
Take `COC(=O)c1c(C(F)F)nc(C(F)(F)F)c(C(=O)Oc2ccc(Cl)cc2)c1CC(C)C` [Compound 173, 3-Methyl 5-(4-Chlorophenyl) 2-(Difluoromethyl)-4-(2-methylpropyl)-6-(trifluoromethyl)-3,5-pyridicarboxylate]: the melting point lay in the range of 81.5 to 82.5 °C. At CETP (setting [3]), the IC50 was determined as 45 µM.
In the case of `COC(=O)c1c(C(F)F)nc(C(F)(F)F)c(C(=O)Oc2cc(C)cc(C)c2)c1CC(C)C` [Compound 174, 3-Methyl 5-(3,5-Dimethylphenyl) 2-(Difluoromethyl)-4-(2-methylpropyl)-6-(trifluoromethyl)-3,5-pyridicarboxylate], the melting point was 90.5 to 94 °C. The compound further came in with a half-maximal inhibitory concentration (IC50) at CETP (setting [3]) of 60 µM.
`COC(=O)c1c(C(F)F)nc(C(F)(F)F)c(C(=O)Oc2ccc(C)cc2C)c1CC(C)C` [Compound 177, 3-Methyl 5-(2,4-Dimethylphenyl) 2-(Difluoromethyl)-4-(2-methylpropyl)-6-(trifluoromethyl)-3,5-pyridicarboxylate] yielded a melting point of 95 to 99 °C. Also, the IC50 on CETP (setting [2]) is 70 µM.
Consider `COC(=O)c1c(C(F)F)nc(C(F)(F)F)c(SSc2ccc(C(C)(C)C)cc2)c1CC(C)C` [Compound 180, Methyl 5-(4-t-Butylphenyldithio)-2-(difluoromethyl)-4-(2-methylpropyl)-6-(trifluoromethyl)-3-pyridinecarboxylate], for which the “IC50 whole serum CETP activity” value in series [1] was found to be 9 µM. Also, at CETP (Table 5, compounds of formula T-5, read-out: IC50), the half-inhibitory concentration (IC50) stood at 0.45 µM.
On to `COC(=O)c1c(C(F)F)nc(C(F)(F)F)c(CSc2ccc(Cl)c(Cl)c2)c1CC(C)C` [Compound 214, Methyl 5-[(3,4-Dichlorophenyl)thiomethyl]-2-(difluoromethyl)-4-(2-methylpropyl)-6-(trifluoromethyl)-3-pyridinecarboxylate], for which the “IC50 whole serum CETP activity” value in series [1] amounted to 70 µM. The half-maximal inhibitory concentration (IC50) at CETP (Table 6, compounds of formula T-6, read-out: IC50) amounted to 2 µM.

A word on the melting point: it is the temperature, or range, at which the solid turns liquid. What is called IC50 is the concentration needed to halve the response being measured.
